# Measured values published in US20100204136A1, “USE OF A PEPTIDE AS A THERAPEUTIC AGENT” (priority 2007, published 2010).
# Experiments:
# HepG2-2.2.15 cells = experiment: Cytotoxicity in HBV assay (dye uptake cell viability); format: cell-based; details: test peptide 10 micrograms per ml
# MRC-5 cells = details: human, 6 days
# Method: For cytotoxicity testing, MRC-5 cells were seeded at 2,500 cells/well in 96 well plates using growth medium. […] The following day, peptide was added and tested in duplicates. After a 6 days incubation period, cell viability was measured using CellTiter 96 Solution (Promega). Plates were incubated for additional 4 hours at 37° C. Adhesive plate sealers were used in place of lids, the sealed plates were inverted several times to mix the soluble formazan product and the plate was read spectrophotometrically at 490/560 nm with a Molecular Devices Vmax plate reader.
# CEM-SS cells = experiment: Cytotoxicity in HIV-1 assay (MTS cell viability); details: peptide 10 micrograms per ml
# HIV-1IIIB = experiment: HIV-1 antiviral assay (CPE reduction, MTS); format: cell-based; details: peptide 10 micrograms per ml; 6 days post-infection
smiles,measurement,setting,value
Nc1ccn([C@@H]2CS[C@H](CO)O2)c(=O)n1 [Compound 3TC],% Cell viability,HepG2-2.2.15 cells,95.8%
Nc1nc(O)c2ncn(COC(CO)CO)c2n1 [Ganciclovir],% Cell viability,MRC-5 cells,100%
Cc1cn([C@H]2C[C@H](N=[N+]=[N-])[C@@H](CO)O2)c(=O)[nH]c1=O [AZT],% Cell viability,CEM-SS cells,97%
same,% CPE reduction in HIV-1 infected CEM-SS cells,HIV-1IIIB,99%
